Measured values: publication PMC9481533, “Structure-based discovery of small molecules that disaggregate Alzheimer’s disease tissue derived tau fibrils in vitro” (Nature Communications, 2022)
Values joined by “and” are separate entries in the source; they are usually repeats but may differ in a detail not shown here. Identical values can stand only once.

How the values were obtained:
Neuro2a cells = experiment: MTT cytotoxicity assay; format: cell-based; conditions: for MTT cell viability, compound alone, Fig. 3f: Neuro2a, final small molecule concentration 10 µM, 24 h, vehicle = 100% viable, individual replicates, 10 µM
Method: (§1) In all, 90 µL of Neuro2a cells were plated on clear 96 well plates (Falcon 353072) at 6000 cells per well and given 24 h to adhere to the plate. Subsequent treatment consisted of PHF samples that were co-incubated with or without 100 µM of small molecules for 48 h at 37 °C, with 10 µl applied per well for a final small molecule concentration of 10 µM. After another 24-h incubation at 37 °C, 20 µl of Thiazolyl Blue Tetrazolium Bromide MTT dye (Sigma; 5 mg/ml stock in DPBS) was added to each well and further incubated for 3.5 h at 37 °C. The assay was arrested by replacement of all media with 100% DMSO and transferred to a SpectraMax MF reader. Background 700 nm readings were subtracted from the absorbance readings at 570 nm. Cells treated with 100% DMSO were designated as 0% viable and those treated only with vehicle were designated as 100% viable. Other well readings were normalized to these values.

MTT cytotoxicity assay = format: cell-based; conditions: mouse, Neuro2a cells, Neuro2a; final small molecule concentration 10 µM; 24 h; vehicle = 100% viable; individual replicates; read-out: MTT cell viability, compound alone, Fig. 3f
Method: as §1

[1] = molecular target: crude AD brain extracts (tau seeds) in HEK293T tau biosensor cells (Homo sapiens, UniProt P10636); experiment: Tau biosensor cell seeding assay, screen with crude AD brain extracts; format: cell-based; conditions: 10 μM inhibitor on cells, seeds pre-incubated 16–18 h at 4 °C, individual replicates (n=3), DMSO control 10734.9/12808.5/11145.3
Source text: From the in silico screen, compounds were ranked and 46 were selected for further experimental validation based on the total binding energy of the ligand/fibril complex. The experimental assessment consisted of direct measures of fibril disassembly (Fig. 2d, e and Supplementary Table 3) and assessment of the seeding capability of the products of disassembled AD tau fibrils in a biosensor cell assay. Disaggregating molecules that produce active seeds are undesirable for therapy and are excluded from further study. HEK293T cells expressing CFP- or YFP-fused tau are transduced with exogenous AD tau fibrils. Externally applied AD-tau fibrils then induce the aggregation of the endogenous fluorescent tau, resulting in the formation of FRET-positive intracellular aggregates, visible as bright puncta by fluorescence microscopy (Fig. 2f). Automated image analysis of visible puncta provides an objective quantification of seeded aggregation. […] Although biosensors may be limited in reporting structural characteristics of fibril progeny, they offer exquisitely sensitive measures of tau seeding activity—the ability for fibrils to recruit monomeric protein into fibrillar form, which is thought to be the mechanism for tau spreading in AD.
(§2) Human autopsy samples were obtained by the Mayo Clinic Brain Bank and UCLA Pathology Department according to HHS regulations from patients consenting to autopsy. Samples were provided to the researchers of this study as anonymized tissues. For purification of paired helical filaments (PHFs) and straight filaments (SFs) from AD brain tissue, extractions were performed according to the previously published protocol without any modifications. […] For biosensor seeding assays with crude AD brain extracts, fresh-frozen tissue from neuropathologically confirmed AD cases was thawed and cut into a 0.2–0.3 g sections. Tissue was manually homogenized in a 15 ml disposable tube in 1 ml of 50 mM Tris, pH 7.4 with 150 mM NaCl, and then aliquoted to PCR tubes and sonicated in a cuphorn bath for 120 min under 30% power at 4 °C in a recirculating ice water bath, according to reference.
(§3) HEK293T cell lines stably expressing tau-K18 P301S-eYFP were obtained from Marc Diamond[25] and used without further characterization or authentication. […] Inhibitors were dissolved in DMSO. […] After twenty minutes, 10 µl of fibrils were added to 90 µl of tau biosensor cells. The number of seeded aggregates was determined by imaging the entire well of a 96-well plate in triplicate using a Celigo Image Cytometer (Nexcelom) in the YFP channel. The number of aggregates in a given image was determined using an ImageJ 2.3.0[50] script, which subtracts the background fluorescence from unseeded cells, and then counts the number of aggregates as peaks with fluorescence above the background using the built-in Particle Analyzer. The number of aggregates was normalized to the confluence of each well, and dose-response plots were generated by calculating the average and standard deviations from triplicate measurements.

[2] = molecular target: brain-purified AD-tau fibrils in HEK293T tau biosensor cells (Homo sapiens, UniProt P10636); experiment: Tau biosensor cell seeding assay, dose-dependent inhibition with brain-purified AD-tau fibrils; format: cell-based; conditions: for Number of seeded aggregates, Supp. Fig. 7: individual replicates
Method: as §2, §3

[3] = molecular target: T1, AD brain-derived tau fibrils (Homo sapiens, UniProt P10636); experiment: Western blot of insoluble tau after compound treatment; format: biochemical; conditions: 72 h at 37 °C
Method: Proteins were transferred from gel to nitrocellulose membrane using an iBLOT2 system. The membrane was blocked for 1 h in TBST with 5% milk and washed with TBST three times. The membrane was then incubated with primary antibody (anti-tau A0024 (Dako), 1:4000 dilution in 2% milk/TBST solution) for 1 h, washed three times with TBST, incubated with horseradish peroxidase-conjugated secondary antibody (goat anti-mouse IgG H and L (HRP); 1:5000 Dilution in 2% milk/TBST), and washed three times in TBST.

[4] = molecular target: T1, AD brain-derived tau fibrils; experiment: Negative stain EM and quantitative EM (qEM) of tau fibrils after compound treatment; format: biochemical
Method: Negatively stained EM Grids were prepared by depositing 6 µl of sample on formvar/carbon-coated copper grids (400 mesh) for 3 min. The sample was rapidly wicked using filter paper without drying the grid and stained with 1% uranyl acetate for 2 min. […] Fibrils were counted from collections of 33 micrographs (in triplicate) for each experimental condition.

[5] = inhibitor concentration 10 (µM)
[6] = inhibitor concentration 40 (µM)

Chain of brain-purified AD-tau fibrils in HEK293T tau biosensor cells (P10636 623-695 limits assumed): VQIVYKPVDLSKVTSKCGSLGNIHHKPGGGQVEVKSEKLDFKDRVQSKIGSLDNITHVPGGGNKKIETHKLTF
T1 sequence (P10636 623-695 limits assumed): as above
Chain of crude AD brain extracts (tau seeds) in HEK293T tau biosensor cells (P10636 623-695 limits assumed): as above

For `Cc1cc(C)cc(N2C(=O)N(c3cccc(Cl)c3)C3CS(=O)(=O)CC32)c1` (centres unmarked) [CNS-12, 1-(3-chlorophenyl)-3-(3,5-dimethylphenyl)tetrahydro-1H-thieno[3,4-d]imidazol-2(3H)-one 5,5-dioxide], the “MTT cell viability, compound alone, Fig. 3f” value (from here on “MTT cell viability”) (Neuro2a cells) was 107.797% and 97.7194% and 77.9839%.
In the case of `O=C1c2ccccc2C(=O)N1c1nc2nccc(-c3ccccc3)n2n1` [CNS-2, 2-(7-phenyl[1,2,4]triazolo[1,5-a]pyrimidin-2-yl)-1H-isoindole-1,3(2H)-dione], the “MTT cell viability” value (Neuro2a cells) is reported as 89.5134% and 84.5916% and the viability at 24 h, 10 µM (MTT cytotoxicity assay) is reported as 97.5%.
For `Cc1cc(C)c(NC(=O)Cn2nc3c4c(cccc4c2=O)-c2ccccc2-3)c(C)c1` [CNS-11, N-mesityl-2-(3-oxoindeno[1,2,3-de]phthalazin-2(3H)-yl)acetamide], the “Neuronal cytotoxicity of compound” value (Neuro2a cells; Neuro 2a (N2a) cells, MTT) was “significant cytotoxicity”, the “MTT cell viability” value (Neuro2a cells) was 62.1272% and 57.0691% and the viability at 24 h, 10 µM (MTT cytotoxicity assay) was 60.2%.
For `O=C(NC1CCN(CCCCC2(C(=O)NCC(F)(F)F)c3ccccc3-c3ccccc32)CC1)c1ccccc1-c1ccc(C(F)(F)F)cc1` [FDA-A2, Lomitipide], the “Number of seeded aggregates in tau biosensor cells (normalized to confluence), Fig. 2e” value (shortened to “Number … (normalized to confluence), Fig. 2e”) ([1]; listed as lomitapide) was 1844.31 and 2433.57 and 2611.16, the “Number of seeded aggregates, Supp. Fig. 7” value (“Number … Supp. Fig. 7” for short) ([2]; inhibitor concentration 1 (µM)) was 9648.53 and 7383.58 and 7455.51 and the “Number … Supp. Fig. 7” value ([2]; inhibitor concentration 2 (µM)) was 5514.78 and 9418.9 and 7841.07. The “Number … Supp. Fig. 7” value ([2]; inhibitor concentration 5 (µM)) was 11341.6 and 15697.2 and 9575.47, the “Number … Supp. Fig. 7” value [2, 5] was 4892.73 and 7401.62 and 3914.28 and the “Number … Supp. Fig. 7” value [2, 6] was 2.016 and 15.6712 and 4.096.
For `CCC(NC(C)C)C(O)c1ccc(O)c(O)c1` (centres unmarked) [FDA-R-14, Isoetharine], the “Number … (normalized to confluence), Fig. 2e” value ([1]; listed as Isoetharine mesylate) was 7986.42 and 10421.3 and 17350.6.
With `CC(C)OC(=O)CCC/C=C\C[C@@H]1[C@@H](/C=C/[C@@H](O)COc2cccc(C(F)(F)F)c2)[C@H](O)C[C@@H]1O` [FDA-R-18, Travoprost] the “Number … (normalized to confluence), Fig. 2e” value [1] was 5152.95 and 6033.26 and 10826.5.
In the case of `O=C(O)c1cc(=O)c2c(OCC(O)COc3cccc4oc(C(=O)O)cc(=O)c34)cccc2o1` [FDA-R-23, Sodium chromoglycate], the “Number … (normalized to confluence), Fig. 2e” value ([1]; listed as cromolyn sodium) is reported as 8238.89 and 9556.51 and 14800.8.
With `COc1cccc(C2C(C(=O)Nc3ccccn3)=C(C)NC3=C2C(=O)CCC3)c1` (centres unmarked) [CNS-5, 4-(3-methoxyphenyl)-2-methyl-5-oxo-N-2-pyridinyl-1,4,5,6,7,8-hexahydro-3-quinolinecarboxamide] the “Number … (normalized to confluence), Fig. 2e” value ([1]; listed as 6327117) was 5790.63 and 5091.84 and 10386.8.
For `CCCCCCCCCC(=O)OCCN1CCN(CCCN2c3ccccc3Sc3ccc(C(F)(F)F)cc32)CC1` [FDA-R-15, Prolixin decanoate], the “Number … (normalized to confluence), Fig. 2e” value ([1]; listed as Prolixin decanoate aka fluphenazine) was 15859.2 and 19243.3 and 27665.8.
For `COc1ccc2c(c1)C(=O)N(CCc1ccc(S(=O)(=O)NC(=O)NC3CCCCC3)cc1)C(=O)C2(C)C` [FDA-R-2, Gliquidone], the “Number … (normalized to confluence), Fig. 2e” value [1] was 7523.16 and 6557.51 and 13245.
In the case of `Cc1ccc(-n2nccn2)c(C(=O)N2CCN(c3nc4cc(Cl)ccc4o3)CC[C@H]2C)c1` [FDA-A-20, Suvorexant], the “Number … (normalized to confluence), Fig. 2e” value [1] is reported as 10609.4 and 12014.6 and 14701.5.
In the case of `COc1ccccc1NC(=O)c1cc2c(ccc3ccccc32)oc1=O` [CNS-25, N-(2-methoxyphenyl)-3-oxo-3H-benzo[f]chromene-2-carboxamide], the “Number … (normalized to confluence), Fig. 2e” value ([1]; listed as 5876327) is reported as 13235.2 and 9679.79 and 19134.9.
In the case of `O=C(Nc1cccc(C(F)(F)F)c1)N1c2ccccc2Sc2ccccc21` [CNS-17, N-[3-(trifluoromethyl)phenyl]-10H-phenothiazine-10-carboxamide], the “Number … (normalized to confluence), Fig. 2e” value ([1]; listed as 6870810) is reported as 4788.26 and 4837.93 and 6713.19, the “Reduction of insoluble tau by Western blot” value [3] is reported as “reduction in insoluble tau species” and the IC50 ([2]; brain-purified AD-tau fibrils, read-out: IC50, inhibition of seeding efficiency in biosensor cells) is reported as under 5 µM. For the same compound, the “Number … Supp. Fig. 7” value ([2]; inhibitor concentration 1 (µM)) was 12634.1 and 17143.6 and 11095.2, the “Number … Supp. Fig. 7” value ([2]; inhibitor concentration 2 (µM)) was 9200.81 and 9676.73 and 6081.22 and the “Number … Supp. Fig. 7” value ([2]; inhibitor concentration 5 (µM)) was 9500.56 and 10385 and 5182.56. For the same compound, the “Number … Supp. Fig. 7” value [2, 5] was 11886 and 11650.5 and 6860.55, the “Number … Supp. Fig. 7” value [2, 6] was 3439.45 and 1968.58 and 2178.79 and the “Fibril reduction by qEM” value [4] was “a corresponding reduction in fibril density was not seen by qEM”. The “Quantitation of fibril number on EM images (qEM), Fig. 3c” value ([4]; relative scale, fibrils alone about 1, individual replicates of 33 micrographs) was 0.7296 and 1.4265 and 0.6447, the “MTT cell viability” value (Neuro2a cells) was 66.6981% and 63.9984% and the viability at 24 h, 10 µM (MTT cytotoxicity assay) was 74.1%.
